In patent US9938238B2, “Anti-auxin compounds” (priority 2015, dated 2018):

Assays:
Format in all cases: in vivo, Arabidopsis
[1] = tested on: ETR2, AtEBP, ACO2 expression; assay: Northern analysis of ethylene responsive gene expression in seedlings; settings: Col-0 wt, hydroponic, dark 4 d
Procedure: (§1) Total RNA was extracted from leaf tissue using the RNeasy Plant Mini Kit (Qiagen, Valencia, Calif.). 10 μg of total RNA was separated by electrophoresis in a 1% (w/v) denaturing agarose gel, after which the RNA was blotted to Zeta-Probe GT Blotting Membrane (Bio-Rad, Hercules, Calif.). ^32P-labelled probes were generated using the RadPrime DNA labeling system (Invitrogen).
Manifestation of ethylene response is dependent on transcriptional induction of ethylene-regulated genes (Alonso et al., 2003; Chao et al., 1997; Solano et al., 1998). This relies on two primary transcription factors, EIN3 and EIL1, with mutational loss of both causing nearly complete ethylene insensitivity. It could be predicted that since PA treatment limits ethylene response it would also reduce or prevent ethylene inducible gene expression similar to the ethylene insensitive ein3-1; eil1-1 double mutant. To test this, Col-0 wt seedlings were treated with 5 μM AgNO3 or increasing concentrations of ethylene in the absence or presence of 25 μM PA, which is also a concentration that results in blockage of ethylene response. […] The latter two genes are not properly expressed in a group of enhanced ethylene response Arabidopsis mutants, with these argued to be members of a subset of ethylene regulated genes whose products are required for controlling the magnitude of ethylene response (Christians and Larsen, 2007; Christians et al., 2008; Deslauriers and Larsen, 2010; Robles et al., 2007).
In contrast to PA treatment, auxin has an antagonistic relationship regarding induction of this same subset of genes. Col-0 wt seedlings were grown hydroponically in the dark for 4 d in the presence of 5 μM AgNO3, 1 μM ACC or 10 μM ACC in the absence or presence of 10 μM 1-naphthaleneacetic acid (NAA) after which tissue was collected for RNA isolation and Northern analysis.

[2] = tested on: chiB and PDF1.2 expression; assay: Expression of ethylene regulated defense genes in leaves; settings: 24 h
Procedure: as §1
For this analysis, Arabidopsis plants were grown hydroponically for 13 d after which they were treated with or without 10 μM ACC in the absence or presence of 25 μM PA, with all samples exposed to 10 μM+/−JA for the 24 h treatment period. […] Auxin functions in a synergistic manner with ethylene and JA to control expression of PDF1.2, with addition of auxin resulting in its hyperinduction (Robles et al., 2012).

Col-0 wt seedlings = assay: Blockage of auxin dependent inhibition of root growth; settings: for root length, auxin alone: light, 7 d, 150 nM NAA or 300 nM IAA versus untreated roots
Procedure: For screening for chemicals that reduce ethylene response, Arabidopsis ctr1-3 seeds were planted on a microtiter plate containing PNS media in the presence of individual chemicals (50 μM concentration of each) from the Microsource Spectrum Collection. Seedlings were grown in the dark for 4 d after which they were scored for manifestation of the ethylene responsive triple response. For all other growth experiments, seedlings were planted on PNS media supplemented with the relevant chemical (Deslauriers and Larsen, 2010). For conditions requiring pamoic acid, media was supplemented with Pamoic acid disodium salt (Sigma Life Science, St. Louis, Mo.). Measurement of ethylene production was conducted as previously described (Deslauriers and Larsen, 2010). […]

DR5::GUS = assay: GUS analysis of auxin responsive DR5::GUS reporter line; settings: for GUS activity in root tip and mature region of the root, auxin alone: 100 nM NAA or 750 nM IAA
Procedure: GUS analysis of DR5::GUS lines was performed as previously described (Ni et al., 2001).
Auxin responsiveness has also been assessed using the Arabidopsis DR5::GUS transgenic line in which several auxin response elements are fused upstream of the GUS reporter gene (Ni et al., 2001). Normally, treatment of DR5::GUS lines with exogenous auxin leads to increased GUS levels, which can be visualized through accumulation of blue color upon adding X-Gluc.

ctr1-3 seedlings = assay: Seedling triple response of constitutive ethylene response mutant ctr1-3 (library screen and follow-up); settings: etiolated ctr1-3 in air, 4 d, 50 μM of each chemical
Procedure: For screening for chemicals that reduce ethylene response, Arabidopsis ctr1-3 seeds were planted on a microtiter plate containing PNS media in the presence of individual chemicals (50 μM concentration of each) from the Microsource Spectrum Collection. Seedlings were grown in the dark for 4 d after which they were scored for manifestation of the ethylene responsive triple response. For all other growth experiments, seedlings were planted on PNS media supplemented with the relevant chemical (Deslauriers and Larsen, 2010). For conditions requiring pamoic acid, media was supplemented with Pamoic acid disodium salt (Sigma Life Science, St. Louis, Mo.). Measurement of ethylene production was conducted as previously described (Deslauriers and Larsen, 2010).
A chemical library screen was performed in which etiolated seedlings of the constitutive ethylene response mutant, ctr1-3, were grown in air for 4 d in the presence of chemicals from the Microsource Spectrum Collection, a bioactive and natural compound library consisting of 2000 different compounds. ctr1-3 seedlings were scored for presentation of the ethylene regulated seedling triple response, consisting of severe hypocotyl and root shortening and exaggerated apical hook formation.

## NC1(C(=O)O)CC1 [ACC, 1-aminocyclopropane-1-carboxylic acid]
[1]; 1 μM or 10 μM ACC without NAA
  induction of ACO2 and AtEBP: normal ethylene responsive induction
[2]; plants grown 13 d hydroponically, 10 μM ACC, 10 μM JA
  chiB and PDF1.2 expression: increased expression

## O=C(O)Cc1c[nH]c2ccccc12 [IAA, indole-3-acetic acid]
Col-0 wt seedlings; 5 days, 300 nM IAA in the absence of Tolmetin (FIG. 6)
  root length, IAA alone: severely inhibitory to roots
Col-0 wt seedlings
  root length, auxin alone: severe root growth inhibition
DR5::GUS
  GUS activity in root tip and mature region of the root, auxin alone: increased GUS activity
DR5::GUS; 750 nM IAA (FIG. 8)
  lateral root initiation, auxin alone: promotes initiation of lateral roots

## O=C(O)Cc1cccc2ccccc12 [NAA, 1-naphthaleneacetic acid]
[1]; 1 μM or 10 μM ACC plus 10 μM NAA
  induction of ACO2 and AtEBP: nearly eliminated induction
[1]; ACC treatments plus 10 μM NAA
  ETR2 expression: no obvious effect on ETR2 expression
Col-0 wt seedlings
  root length, auxin alone: severe root growth inhibition
DR5::GUS
  GUS activity in root tip and mature region of the root, auxin alone: increased GUS activity
[2]; 10 μM ACC supplemented with 250 nM NAA
  chiB and PDF1.2 levels: far greater than what was observed following treatment with ACC alone

## CN1CCCN=C1/C=C/c1cccs1 [Pyrantel pamoate]
ctr1-3 seedlings
  apical hook formation in chemical library screen: blocked apical hook formation
  root length in chemical library screen: measurably longer roots
